Source: US8492559B2, “Substituted indole compounds” (Gruenenthal GmbH, priority 2009, dated 2013)

Molecular target: T1, human B1R receptor (hB1R) (Homo sapiens, UniProt P46663)
T1 construct: expressed in transfected cells; host or cells: CHO K1 cells
T1 sequence (P46663 1-353): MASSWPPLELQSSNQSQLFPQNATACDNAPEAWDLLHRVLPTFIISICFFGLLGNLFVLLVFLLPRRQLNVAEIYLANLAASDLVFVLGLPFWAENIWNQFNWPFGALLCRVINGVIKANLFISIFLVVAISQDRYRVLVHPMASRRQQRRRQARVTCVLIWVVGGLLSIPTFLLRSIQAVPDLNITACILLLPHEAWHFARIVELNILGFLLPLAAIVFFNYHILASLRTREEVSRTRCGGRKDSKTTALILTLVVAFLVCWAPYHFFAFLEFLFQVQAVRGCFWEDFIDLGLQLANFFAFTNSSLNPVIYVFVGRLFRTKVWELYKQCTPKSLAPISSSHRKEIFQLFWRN
Assay: Functional investigation on the bradykinin 1 receptor (B1R), FLIPR Ca2+ assay, hB1R cells
Type: cell-based
Conditions: CHO K1 cells with human B1R, agonist Lys-Des-Arg9 bradykinin, % of maximum achievable inhibition; for inhibition at 10 µM: CHO-K1, 10 μM test substance, read-out: B1R antagonism, human [10 μM] % inhibition
Description: The agonistic or antagonistic action of substances can be quantified on the bradykinin 1 receptor (B1R) of the human and rat species with ectopically expressing cell lines (CHO K1 cells) and with the aid of a Ca^2+-sensitive dye (Fluo-4) using a fluorescent imaging plate reader (FLIPR). The indication in % activation is based on the Ca^2+ signal after addition of Lys-Des-Arg^9 bradykinin (0.5 nM) or Des-Arg^9 bradykinin (100 nM). Antagonists lead to a suppression of the Ca^2+ influx following administration of the agonist. The % inhibition in comparison with the maximum achievable inhibition is indicated.
1. Functional Investigation on the Bradykinin 1 Receptor (B1R)
The agonistic or antagonistic action of substances can be determined on the bradykinin 1 receptor (B1R) of the human and rat species with the following assay. According to this assay, the Ca^2+ inflow through the channel is quantified with the aid of a Ca^2+-sensitive dye (Fluo-4 type, Molecular Probes Europe BV, Leiden, Netherlands) in a fluorescent imaging plate reader (FLIPR, Molecular Devices, Sunnyvale, USA).
Chinese hamster ovary cells (CHO K1 cells) which are stably transfected with the human B1R gene (hB1R cells) or the B1R gene of the rat (rB1R cells) are used. For functional investigations these cells are plated-out onto black 96-well plates with a clear base (BD Biosciences, Heidelberg, Germany or Greiner, Frickenhausen, Germany) in a density of 20,000-35,000 cells/well. Overnight the cells are incubated at 37° C. and 5% CO2 in culture medium (hB1R cells: Ham's Nutrient Mixture F12, Gibco Invitrogen GmbH, Karlsruhe, Germany or DMEM, Sigma-Aldrich, Taufkirchen, Germany; rB1R cells: D-MEM/F12, Gibco Invitrogen, Karlsruhe, Germany) with 10 vol. % FBS (foetal bovine serum, Gibco Invitrogen GmbH, Karlsruhe, Germany or PAN Biotech GmbH, Aidenbach, Germany).
On the following day the cells are loaded with 2.13 μM Fluo-4 (Molecular Probes Europe BV, Leiden, Netherlands) in HBSS buffer (Hank's buffered saline solution, Gibco Invitrogen GmbH, Karlsruhe, Germany) with 2.5 mM probenecid (Sigma-Aldrich, Taufkirchen, Germany) and 10 mM HEPES (Sigma-Aldrich, Taufkirchen, Germany) for 60 min at 37° C. The plates are subsequently washed twice with HBSS buffer, and HBSS buffer which additionally contains 0.1% BSA (bovine serum albumin; Sigma-Aldrich, Taufkirchen, Germany), 5.6 mM glucose and 0.05% gelatine (Merck KGaA, Darmstadt, Germany) is added. After a further incubation of 20 minutes at room temperature, the plates are inserted into the FLIPR for Ca^2+ measurement.
Alternatively they are washed with buffer A (15 mM HEPES, 80 mM NaCl, 5 mM KCl, 1.2 mM CaCl2, 0.7 mM MgSO4, 2 g/l glucose, 2.5 mM probenecid) and loaded with buffer A with added 2.5 μM Fluo-4 and 0.025% Pluronic F127 (Sigma-Aldrich, Taufkirchen, Germany). The cells are then washed twice with buffer A and incubated for 30 minutes with buffer A, which additionally contains 0.05% BSA and 0.05% gelatine, at room temperature and then used for Ca^2+ measurement in the FLIPR. The Ca^2+-dependent fluorescence is measured here before and after addition of substances (λex=488 nm, λem=540 nm). The quantification is performed by measuring the highest fluorescence intensity (FC, fluorescence counts) over time.
The FLIPR protocol comprises two additions of substance. Test substances (10 μM) are first pipetted onto the cells and the Ca^2+ inflow is compared with the control (hB1R: Lys-Des-Arg^9 bradykinin>=50 nM; rB1R: Des-Arg^9 bradykinin 10 μM). The value in % activation based on the Ca^2+ signal after addition of Lys-Des-Arg^9 bradykinin (>=50 nM) or Des-Arg^9 bradykinin (10 μM) is obtained therefrom. After incubation for 10-20 minutes, Lys-Des-Arg^9 bradykinin (hB1R) or Des-Arg^9 bradykinin (rB1R) is applied in the EC80 concentration and the inflow of Ca^2+ is likewise determined.
Antagonists lead to a suppression of the Ca^2+ inflow. The % inhibition in comparison with the maximum achievable inhibition is calculated. […]

Row | Compound | inhibition at 10 µM [%] | B1R antagonism, human [10 μM] % inhibition (10 μM test substance, 10 µM) [%]
1 | O=C(Cn1ccc2ccc(N3Cc4cccc(Cl)c4C3=O)cc21)N1CCC2(CCC(N3CCC3)CC2)CC1 [Compound G-21, 2-(1-(2-(9-(Azetidin-1-yl)-3-azaspiro[5.5]undecan-3-yl)-2-oxoethyl)-1H-indol-6-yl)-7-chloroisoindolin-1-one] | 99 | 
2 | COc1cc(C)c(S(=O)(=O)Nc2cccc3ccn(CC(=O)N4CCC5(CCC(Oc6ccncc6)CC5)CC4)c23)c(C)c1 [Compound G-22, 4-Methoxy-2,6-dimethyl-N-(1-(2-oxo-2-(9-(pyridin-4-yloxy)-3-azaspiro[5.5]undecan-3-yl)ethyl)-1H-indol-7-yl)benzenesulfonic acid amide] | 100 | 
3 | Cn1c2c(c3c(Cl)cccc31)C(=O)N(c1ccc3ccn(CC(=O)N4CCC5(CC4)CCN(c4ccncc4)CC5)c3c1)C2 [Compound G-23, 8-Chloro-4-methyl-2-[1-[2-oxo-2-(9-pyridin-4-yl-3,9-diazaspiro[5.5]undecan-3-yl)-ethyl]-1H-indol-6-yl]-3,4-dihydro-2H-pyrrolo[3,4-b]indol-1-one] | 100 | 
4 | COc1cc(C)c(S(=O)(=O)NCc2cccc3ccn(CC(=O)N4CCC5(CC4)CCN(c4ccncc4)CC5)c23)c(C)c1 [Compound G-24, 4-Methoxy-2,6-dimethyl-N-[[1-[2-oxo-2-(9-pyridin-4-yl-3,9-diazaspiro[5.5]undecan-3-yl)-ethyl]-1H-indol-7-yl]-methyl]-benzenesulfonic acid amide] | 98 | 
5 | Cc1cccc2c1C(=O)N(c1ccc3ccn(CC(=O)N4CCC5(CC4)CCN(c4ccncc4)CC5)c3c1)C2 [Compound G-26, 7-Methyl-2-[1-[2-oxo-2-(9-pyridin-4-yl-3,9-diazaspiro[5.5]undecan-3-yl)-ethyl]-1H-indol-6-yl]-2,3-dihydro-isoindol-1-one] | 98 | 
6 | Cc1ccc2n1C(=O)N(c1ccc3ccn(CC(=O)N4CCC5(CC4)CCN(c4ccncc4)CC5)c3c1)C2 [Compound G-27, 5-Methyl-2-[1-[2-oxo-2-(9-pyridin-4-yl-3,9-diazaspiro[5.5]undecan-3-yl)-ethyl]-1H-indol-6-yl]-1,2-dihydro-pyrrolo[2,1-e]imidazol-3-one] | 96 | 
7 | O=C(Cn1ccc2ccc(N3CCn4c(c(Cl)c5ccccc54)C3=O)cc21)N1CCC2(CC1)CCN(c1ccncc1)CC2 [Compound G-31, 10-Chloro-2-[1-[2-oxo-2-(9-pyridin-4-yl-3,9-diazaspiro[5.5]undecan-3-yl)-ethyl]-1H-indol-6-yl]-3,4-dihydro-2H-pyrazino[1,2-a]indol-1-one] | 80 | 
8 | O=C(Cn1ccc2ccc(N3CCn4ccc(Cl)c4C3=O)cc21)N1CCC2(CC1)CCN(c1ccncc1)CC2 [Compound G-33, 8-Chloro-2-[1-[2-oxo-2-(9-pyridin-4-yl-3,9-diazaspiro[5.5]undecan-3-yl)-ethyl]-1H-indol-6-yl]-3,4-dihydro-2H-pyrrolo[1,2-a]pyrazin-1-one] | 93 | 
9 | COc1cc(C)c(S(=O)(=O)Nc2ccc3ccn(CC(=O)N4CCC(N5CCN(C)CC5)CC4)c3c2)c(C)c1 [G_CC-2, 4-Methoxy-2,6-dimethyl-N-[1-[2-[4-(4-methyl-piperazin-1-yl)-piperidin-1-yl]-2-oxo-ethyl]-1H-indol-6-yl]-benzenesulfonic acid amide] | 46 | 
10 | Cc1cc(S(=O)(=O)Nc2ccc3ccn(CC(=O)N4CCN(CC5CCN(C)CC5)CC4)c3c2)c(C)cc1Cl [G_CC-8, 4-Chloro-2,5-dimethyl-N-[1-[2-[4-[(1-methyl-piperidin-4-yl)-methyl]-piperazin-1-yl]-2-oxo-ethyl]-1H-indol-6-yl]-benzenesulfonic acid amide] | 26 | 
11 | COc1cc(C)c(S(=O)(=O)Nc2cccc3ccn(CC(=O)N4CCC5(CC4)CCN(Cc4ccccc4)C5=O)c23)c(C)c1 [G_CC-32, N-[1-[2-(3-Benzyl-4-oxo-3,8-diazaspiro[4.5]decan-8-yl)-2-oxo-ethyl]-1H-indol-7-yl]-4-methoxy-2,6-dimethyl-benzenesulfonic acid amide] | 73 | 
12 | COc1cc(C)c(S(=O)(=O)Nc2cccc3ccn(CCC(=O)N4CCN(CC5CCN(C)CC5)CC4)c23)c(C)c1 [G_CC-43, 4-Methoxy-2,6-dimethyl-N-[1-[3-[4-[(1-methyl-piperidin-4-yl)-methyl]-piperazin-1-yl]-3-oxo-propyl]-1H-indol-7-yl]-benzenesulfonic acid amide] | 100 | 
13 | COc1cc(C)c(S(=O)(=O)Nc2cccc3ccn(CCC(=O)NCCC4CCN(c5ccncc5)CC4)c23)c(C)c1 [G_CC-47, 3-[7-[[(4-Methoxy-2,6-dimethyl-phenyl)sulfonyl]amino]-1H-indol-1-yl]-N-[2-(1-pyridin-4-yl-piperidin-4-yl)-ethyl]-propionamide] | 100 | 
14 | COc1cc(C)c(S(=O)(=O)Nc2cccc3ccn(CCC(=O)N4CCC5(CC4)CCN(c4ccncc4)CC5)c23)c(C)c1 [G_CC-54, 4-Methoxy-2,6-dimethyl-N-[1-[3-oxo-3-(3-pyridin-4-yl-3,9-diazaspiro[5.5]undecan-9-yl)-propyl]-1H-indol-7-yl]-benzenesulfonic acid amide] | 99 | 
15 | Cc1cc(S(=O)(=O)Nc2cccc3ccn(CCC(=O)N4CCN(CC5CCN(C)CC5)CC4)c23)c(C)cc1Cl [G_CC-62, 4-Chloro-2,5-dimethyl-N-[1-[3-[4-[(1-methyl-piperidin-4-yl)-methyl]-piperazin-1-yl]-3-oxo-propyl]-1H-indol-7-yl]-benzenesulfonic acid amide] | 94 | 
16 | O=C(CCn1ccc2ccc(N3Cc4cccc(Cl)c4C3=O)cc21)N1CCC2(CC1)CCN(c1ccncc1)CC2 [G_CC-67, 7-Chloro-2-[1-[3-oxo-3-(3-pyridin-4-yl-3,9-diazaspiro[5.5]undecan-9-yl)-propyl]-1H-indol-6-yl]-2,3-dihydro-isoindol-1-one] |  | 99
17 | COc1cc(C)c(S(=O)(=O)Nc2ccc3ccn(CC(=O)N(C)CCCN4CCN(c5ccncc5)CC4)c3c2)c(C)c1 [G_CC-76, 2-[6-[[(4-Methoxy-2,6-dimethyl-phenyl)sulfonyl]amino]-1H-indol-1-yl]-N-methyl-N-[3-(4-pyridin-4-yl-piperazin-1-yl)-propyl]-acetamide] | 92 | 
18 | COc1cc(C)c(S(=O)(=O)Nc2cccc3ccn(CC(=O)N(C)CCCN4CCN(c5ccncc5)CC4)c23)c(C)c1 [G_CC-88, 2-[7-[[(4-Methoxy-2,6-dimethyl-phenyl)sulfonyl]amino]-1H-indol-1-yl]-N-methyl-N-[3-(4-pyridin-4-yl-piperazin-1-yl)-propyl]-acetamide] | 100 | 
